Several values for one entry are separate records, joined by “and”; a condition that tells them apart may be missing. Equal values may be shown once. Read-outs that look alike come from different tables or passages of the source. [ ]: non-standard residue; d: D form. Nle = CCCC[C@H](N)C(=O)O
Tests used:
[1] = test system: SARS-CoV-2 (USA-WA1/2020); assay: microbe, parasite or virus in culture; format: cell-based
in vitro [2] = settings: human, U-87 MG cell viability (%)
in vitro [3] = settings: African green monkey
in vitro [4] = settings: human, Huh7 cell viability (%)

Row | Compound | Cell viability (%) (Vero cells; 20 μM) | SARS-CoV-2 infection (%) ([1]; 20 μM) | viability at 3.33 µM (in vitro [2]) | viability at 10 µM (in vitro [2]) | viability at 20 µM (in vitro [3]; Cell viability (%), 20 μM) | Cell viability (%) (Vero cells; 0.625 μM) | Cell viability (%) (Vero cells; 1.25 μM) | Cell viability (%) (Vero cells; 5 μM) | SARS-CoV-2 infection (%) ([1]; 0.625 μM) | SARS-CoV-2 infection (%) ([1]; 1.25 μM) | SARS-CoV-2 infection (%) ([1]; 5 μM) | viability at 0.37 µM (in vitro [2]) | viability at […] (in vitro [2]) | viability at 0.625 µM (in vitro [3]; Cell viability (%), 0.625 μM) | viability at 1.25 µM (in vitro [3]; Cell viability (%), 1.25 μM) | viability at 5 µM (in vitro [3]; Cell viability (%), 5 μM) | further results
1 | [N-]=[N+]=CC(=O)OC[C@H](N)C(=O)O [Aza-serine] | 91.48% and 89.75% | 0.00% | 94.5% | 84% | 87.1% |  |  |  |  |  |  |  |  |  |  |  | Cell viability (%) (Vero cells; 0.2469 μM): 103.32%; Cell viability (%) (Vero cells; 2.2222 μM): 96.19% and 95.62%; Cell viability (%) (Vero cells; 6.6667 μM): 94.50% and 92.95%; SARS-CoV-2 infection (%) ([1]; 0.2469 μM): 107.69% and 86.64%; SARS-CoV-2 infection (%) ([1]; 2.2222 μM): 7.01% and 8.09%; SARS-CoV-2 infection (%) ([1]; 6.6667 μM): 2.70% and 1.62%; viability at 0.2469 µM (in vitro [3]; Cell viability (%), 0.2469 μM): 87.9%; viability at 2.2222 µM (in vitro [3]; Cell viability (%), 2.2222 μM): 89.7%; viability at 6.6667 µM (in vitro [3]; Cell viability (%), 6.6667 μM): 92.2%
2 | CNc1ccc2oc(C[C@H]3O[C@@]4(CC[C@H]3C)O[C@H]([C@H](C)C(=O)c3ccc[nH]3)[C@H](C)C[C@H]4C)nc2c1C(=O)O [Calci-mycin] | 81.29% | 0.00337% | 66.8% | 58.2% | 86.9% | 91.36% and 94.20% | 98.44% and 96.45% | 93.68% and 94.54% | 17.53% and 16.18% and 16.52% | 0.00337% | 0.00337% | 103% | 82.3% and 103% | 89.2% | 98.6% | 93.5% | 
3 | O=C1NCN(c2ccccc2)C12CCN(CCCC(c1ccc(F)cc1)c1ccc(F)cc1)CC2 [Fluspiri-lene] | 83.60% and 85.38% | 3.37% and 2.70% and 4.04% | 102% | 93.8% | 85.1% | 103.85% and 102.73% | 105.07% and 105.49% | 94.12% and 91.52% | 121.35% and 117.98% and 101.12% | 111.24% and 114.61% and 104.49% | 114.61% and 94.38% and 111.24% | 97% | 97.8% and 97.9% | 105% | 108% | 94% | 
4 | CO[C@@H]1[C@@H](O[C@@H]2O[C@H](C)[C@@H](O[C@H]3C[C@@](C)(O)[C@@H](OC(=O)CC(C)C)[C@H](C)O3)[C@H](N(C)C)[C@H]2O)[C@@H](CC=O)C[C@@H](C)[C@@H](O)/C=C/C=C/C[C@@H](C)OC(=O)C[C@H]1OC(C)=O [Josa-mycin] |  | 8.09% and 10.77% | 91.6% | 100% |  |  |  |  |  |  |  | 90.4% | 91.6% and 95.3% |  |  |  | Cell viability (%) (Vero cells; 2.22 μM): 93.52% and 91.16%; Cell viability (%) (Vero cells; 6.67 μM): 93.20% and 88.03%; SARS-CoV-2 infection (%) [1]: 107.69% and 101.94%; SARS-CoV-2 infection (%) ([1]; 2.22 μM): 48.50% and 53.93%; SARS-CoV-2 infection (%) ([1]; 6.67 μM): 16.19% and 21.54%; viability at 0.247 µM (in vitro [3]; Cell viability (%)): 102%; viability at 20 µM (in vitro [3]; Cell viability (%)): 89.7%; viability at 2.22 µM (in vitro [3]; Cell viability (%), 2.22 μM): 96.9%; viability at 6.67 µM (in vitro [3]; Cell viability (%), 6.67 μM): 93%
5 | CO[C@@H]1[C@@H](O[C@@H]2O[C@H](C)[C@@H](O[C@H]3C[C@@](C)(O)[C@@H](OC(=O)CC(C)C)[C@H](C)O3)[C@H](N(C)C)[C@H]2O)[C@@H](CC=O)C[C@@H](C)[C@@H](O)/C=C/C=C/C[C@@H](C)OC(=O)C[C@H]1OC(C)=O [Josamycin] |  |  |  |  |  |  |  |  |  |  |  |  |  |  |  |  | viability at 0.37 µM (in vitro [4]): 94.1%; viability at 3.33 µM (in vitro [4]): 97.2%; viability at 10 µM (in vitro [4]): 98.2%; viability at […] (in vitro [4]): 96.6% and 93.2%; EC50 ([1]; Severe acute respiratory syndrome coronavirus 2, Vero, 24 h, read-out: SARS-CoV-2 EC50): 2.4 µM; CC50 (in vitro [3]): > 20 µM
6 | CN(C)C(=O)C(CCN1CCC(O)(c2ccc(Cl)cc2)CC1)(c1ccccc1)c1ccccc1 [Lopera-mide] |  |  | 101% | 97.5% |  |  |  |  |  |  |  | 98.7% | 100% and 98.5% |  |  |  | Cell viability (%) (Vero cells; African green monkey, 20 µM): 99.64%; viability at 0.625 µM (in vitro [3]; Cell viability (%)): 115%; viability at 1.25 µM (in vitro [3]; Cell viability (%)): 121%; viability at 5 µM (in vitro [3]; Cell viability (%)): 105%; viability at 20 µM (in vitro [3]; Cell viability (%)): 98.5%
7 | CN(C)C(=O)C(CCN1CCC(O)(c2ccc(Cl)cc2)CC1)(c1ccccc1)c1ccccc1 [Loperamide] |  |  |  |  |  |  |  |  |  |  |  |  |  |  |  |  | viability at 0.123 µM (in vitro [4]): 92.4%; viability at 0.37 µM (in vitro [4]): 91.8%; viability at 3.333 µM (in vitro [4]): 88.9%; viability at 10 µM (in vitro [4]): 68.3%; CC50 (in vitro [3]): > 20 µM
8 | O[C@H]1[C@H]2c3cc4c(cc3CN3CCC(=C[C@@H]1O)[C@H]23)OCO4 [Lyco-rine] | 88.99% and 91.05% | 0.00337% |  |  | 83% | 98.69% | 103.60% and 104.02% | 84.99% and 87.96% | 7.08% and 5.06% and 8.76% | 0.34% and 0.40% and 0.24% | 0.00337% |  |  | 93.8% | 97.9% | 83% | 
9 | CC[C@@]1([C@@H]2O[C@@H]([C@H]3O[C@@](O)(CO)[C@H](C)C[C@@H]3C)C[C@@H]2C)CC[C@H]([C@]2(C)CC[C@]3(C[C@H](O)[C@@H](C)[C@@H]([C@@H](C)[C@@H](OC)[C@H](C)C(=O)O)O3)O2)O1 [Monen-sin] | 97.54% and 96.71% | 0.0337% | 78.7% | 79.7% | 98.8% | 106.13% and 103.45% | 110.73% and 112.93% | 95.75% and 98.96% | 74.16% and 84.27% and 91.01% | 33.71% and 60.67% and 53.93% | 0.0742% and 0.09% and 0.07% | 82% | 79.2% and 83.3% | 103% | 113% | 100% | 
10 | CC(C)(C)NCC(O)c1ccc(O)c(CO)c1 (stereo not shown) [Salbuta-mol] |  | 105.49% and 89.01% |  |  |  |  |  |  | 85.71% and 108.79% and 115.38% | 128.57% and 98.90% | 92.31% and 118.68% and 115.38% |  |  |  |  |  | 
11 | O=C(CCCN1CCC2(CC1)C(=O)NCN2c1ccccc1)c1ccc(F)cc1 [Spipe-rone] | 101.04% | 0.47% and 0.20% and 0.30% | 101% | 97% | 97.4% | 94.16% and 92.89% | 101.11% | 96.86% and 95.76% | 124.72% and 114.61% and 131.46% | 107.87% and 117.98% and 101.12% | 15.17% and 17.19% and 12.81% | 99.2% | 99.5% and 99.9% | 91.9% | 99.9% | 94.3% | 
12 | O=C(CCCN1CCC2(CC1)C(=O)NCN2c1ccccc1)c1ccc(F)cc1 [Spiperone] |  |  |  |  |  |  |  |  |  |  |  |  |  |  |  |  | viability at 0.37 µM (in vitro [4]): 99.5%; viability at 3.33 µM (in vitro [4]): 79.2%; viability at 10 µM (in vitro [4]): 75.7%; viability at […] (in vitro [4]): 97% and 99.9%; CC50 (in vitro [3]): > 20 µM
13 | COc1ccc2cc1Oc1ccc(cc1)C[C@H]1c3cc(c(OC)cc3CCN1C)Oc1c(OC)c(OC)cc3c1[C@H](C2)N(C)CC3 [Tetran-drine] | 48.98% and 79.18% and 56.10% | 0.00337% | 101% | 98.9% |  | 99.78% | 105.40% and 105.65% | 86.02% and 86.44% | 107.87% and 117.98% and 101.12% | 53.93% and 104.49% and 87.64% | 0.61% and 0.84% and 0.88% | 101% | 105% and 97.8% | 94.4% | 101% | 83.6% | 
14 | CC(C)(C)c1cc(C=C(C#N)C#N)cc(C(C)(C)C)c1O [Tyrphos-tin A9] | 97.68% and 97.70% | 9.10% and 6.07% and 8.43% |  |  | 91.5% | 112.22% and 113.82% | 118.35% and 120.78% | 96.34% | 101.12% and 121.35% and 124.72% | 131.46% and 128.09% and 114.61% | 107.87% and 117.98% and 101.12% |  |  | 107% | 111% | 96.3% | 
15 | CC(C)(C)c1cc(/C=C(\C#N)C(N)=S)cc(C(C)(C)C)c1O [Tyrphos-tin AG 879] | 71.26% and 69.85% | 0.00337% |  |  | 71% | 83.52% and 84.00% | 88.30% and 88.47% | 78.46% and 79.21% | 47.19% and 30.34% and 33.71% | 7.75% and 5.73% and 5.06% | 0.40% and 0.44% and 0.27% |  |  | 85.5% | 87.2% | 78.7% | viability at 0.25 µM (in vitro [2]): 96.7%; viability at 0.74 µM (in vitro [2]): 85%; viability at 2.22 µM (in vitro [2]): 85.2%; viability at 6.67 µM (in vitro [2]): 78.3%; viability at 20 µM (in vitro [2]): 70.1%
16 | Ac-Leu-Leu-[Nle]-aldehyde |  | 2.73% and 1.37% and 0.00% |  |  |  |  |  |  |  |  |  |  |  |  |  |  | CC50 (Vero cells): > 20 µM; Cell viability (%) (Vero cells; 0.25 μM): 91.85%; Cell viability (%) (Vero cells; 0.74 μM): 90.53%; Cell viability (%) (Vero cells; 6.67 μM): 98.46%
17 | Aurothioglucose |  |  |  |  |  |  |  |  |  |  |  |  |  |  |  |  | CC50 (Vero cells): > 20 µM
18 | Penitrem A |  | 6.40% and 7.08% and 9.44% |  |  |  |  |  |  | 91.01% and 104.49% and 97.75% | 111.24% and 101.12% and 94.38% | 117.98% and 128.09% and 111.24% |  |  |  |  |  | 

From publication PMC10541190 (The Journal of Clinical Investigation, 2023)
